The values that follow come from ChEMBL document CHEMBL5352388 (Eur J Med Chem, 2022).

Series [1] deals with Lysine-specific histone demethylase 1A (Homo sapiens, UniProt O60341).
Description: Inhibition of recombinant human LSD1 using fluorometric substrate by HRP based fluorimeter microplate reader assay
Series [2] concerns MCF7. In words: cells. Particulars: Homo sapiens, MCF7, 72 h.
Description: Antiproliferative activity against human MCF7 cells assessed as inhibition of cell growth incubated for 72 hrs by CCK-8 assay
Series [3] deals with A549. In words: cells. Particulars: Homo sapiens, A549, 72 h.
Description: Antiproliferative activity against human A549 cells assessed as inhibition of cell growth incubated for 72 hrs by CCK-8 assay
The subject of series [4] is MGC-803. In words: cells. The following applies: Homo sapiens, MGC-803, 72 h.
Description: Antiproliferative activity against human MGC-803 cells assessed as inhibition of cell growth incubated for 72 hrs by CCK-8 assay
The subject of series [5] is HeLa. In words: Antiproliferative activity against human HeLa cells assessed as inhibition of cell growth incubated for 72 hrs by CCK-8 assay. The format is functional, cell-based. A general note: Formazan colour is commonly taken as a measure of viable cells.
In series [6] the test system is NCI-H460. In words: cells. The following applies: Homo sapiens, NCI-H460, 72 h.
Description: Antiproliferative activity against human NCI-H460 cells assessed as inhibition of cell growth incubated for 72 hrs by CCK-8 assay
The nature of series [7]: in vitro. The following applies: human, THLE-2 cells.
Description: Antiproliferative activity against human THLE-2 cells assessed as inhibition of cell growth incubated for 72 hrs by CCK-8 assay

Broadly, the IC50 is the point on the concentration scale where inhibition reaches its midpoint. In turn, `Cc1ccc(-c2cc3c(cc2-c2ccc(C(N)=O)cc2)c(C(=O)NC2CCNCC2)cn3C)cc1` showed an IC50 in series [1] of 20 µM.
Consider `Cc1ccc(-c2cc3[nH]cc(C(=O)N4CCC(N)CC4)c3cc2-c2ccc(C#N)cc2)c(F)c1`, for which the IC50 in series [2] worked out at 16.9 µM; in series [3] it was 2.3 µM; in series [4], 24 µM; in series [5], 27 µM; in series [1], 0.063 µM; in series [6], 28.3 µM. The IC50 at 72 h in series [7] turned out to be 27.8 µM.
For `Cc1ccc(-c2cc3[nH]cc(C(=O)NCC4CCNC4)c3cc2-c2ccc(C#N)cc2)cc1` (stereo unspecified), half-maximal inhibition in series [1] (IC50) required 0.208 µM.
As to `Cc1ccc(-c2cc3[nH]cc(C(=O)N4CCC(N)CC4)c3cc2-c2ccc(C#N)cc2)cc1`, the IC50 was determined as 10 µM in series [2]; 4.2 µM in series [3]; 9.3 µM in series [4]; 14.2 µM in series [5]; 0.053 µM in series [1]; 27.6 µM in series [6]. The compound also registered a concentration for half-maximal inhibition (IC50) at 72 h in series [7] of 23.9 µM.
Turning to `Cc1ccc(-c2cc3c(cc2-c2ccc(C#N)cc2)c(C(=O)N2CCC(N)CC2)cn3Cc2cccc(C#N)c2)cc1`, the concentration for half-maximal inhibition (IC50) in series [2] came to 6.7 µM; in series [3], 3.4 µM; in series [4], 4.6 µM; in series [5] it was 6.6 µM; in series [1], 0.161 µM; in series [6], 7.7 µM. Also, half-maximal inhibition in series [7] (IC50 at 72 h) was put at 5.8 µM.
For the compound `Cc1ccc(-c2cc3[nH]cc(C(=O)N4CCC(N)CC4)c3cc2-c2ccc(C#N)cc2)cc1F`, the IC50 in series [2] amounted to 10.2 µM; in series [3] it was 3.5 µM; in series [4], 15.6 µM; in series [5], 16.6 µM; in series [1] it was 0.103 µM; in series [6], 29.3 µM. The compound also returned an IC50 at 72 h in series [7] of 29.9 µM.
In series [1], `Cc1ccc(-c2cc3[nH]cc(C(=O)N4CCC(CN)CC4)c3cc2-c2ccc(C#N)cc2)cc1` had an IC50 of 0.135 µM.
For `Cc1ccc(-c2cc3[nH]cc(C(=O)NCC4CCNCC4)c3cc2-c2ccc(C#N)cc2)cc1`, the IC50 in series [2] turned out to be 8.5 µM; in series [3], 15.4 µM; in series [4], 9.8 µM; in series [5], 12.6 µM; in series [1] it was 0.06 µM; in series [6], 9.4 µM. This compound also showed an IC50 at 72 h in series [7] of 16.1 µM.
As to `Cc1ccc(-c2cc3c(cc2-c2ccc(C#N)cc2)c(C(=O)N2CCC(N)CC2)cn3Cc2ccc(Cl)cc2)cc1`, in series [1], the IC50 came out at 0.691 µM.
Same read-out and setting: next, `Cc1ccc(-c2cc3[nH]cc(C(=O)NC4CCCNC4)c3cc2-c2ccc(C#N)cc2)cc1` (stereo unspecified): 0.4 µM; `Cc1ccc(-c2cc3[nH]cc(C(=O)N4CCC(N)CC4)c3cc2-c2ccc([N+](=O)[O-])cc2)cc1`: 20 µM.
`Cc1ccc(-c2cc3[nH]cc(C(=O)N4CCC[C@H](N)C4)c3cc2-c2ccc(C#N)cc2)cc1`: the IC50 in series [2] was determined as 6.1 µM; in series [3], 8.8 µM; in series [4], 9 µM; in series [5] it was 11.4 µM; in series [1], 0.085 µM; in series [6], 16.2 µM. In series [7], this compound displayed an IC50 at 72 h of 17.5 µM.
For `Cc1ccc(-c2cc3c(cc2-c2ccc(C#N)cc2)c(C(=O)N2CCC(N)CC2)cn3C)cc1`, the IC50 in series [2] is 7.1 µM; in series [3] it was 5.5 µM; in series [4], 5.3 µM; in series [5], 7.1 µM; in series [1], 0.012 µM; in series [6] it was 4.7 µM. The compound also registered an IC50 at 72 h in series [7] of 7.3 µM.
Turning to `Cc1ccc(-c2cc3[nH]cc(C(=O)N[C@H]4CC[C@H](N)CC4)c3cc2-c2ccc(C#N)cc2)cc1`, half-maximal inhibition in series [1] (IC50) was put at 0.65 µM.
On the same count and under the same terms, next, `Cc1ccc(-c2cc3[nH]cc(C(=O)N4CCC[C@@H](N)C4)c3cc2-c2ccc(C#N)cc2)cc1`: 0.339 µM.
Consider `Cc1cc(C)cc(-c2cc3[nH]cc(C(=O)N4CCC(N)CC4)c3cc2-c2ccc(C#N)cc2)c1`, for which the IC50 in series [2] is 7 µM; in series [3] it was 5.3 µM; in series [4], 8.8 µM; in series [5], 10 µM; in series [1], 0.061 µM; in series [6], 13.6 µM. This compound also registered an IC50 at 72 h in series [7] of 11.8 µM.
In series [1], `N#Cc1ccc(-c2cc3c(C(=O)N4CCC(N)CC4)c[nH]c3cc2-c2cncnc2)cc1` showed an IC50 of 0.954 µM.
`N#Cc1ccc(-c2cc3c(C(=O)N4CCC(N)CC4)c[nH]c3cc2-c2ccc(C(F)(F)F)cc2)cc1` displayed an IC50 in series [1] of 0.897 µM.
On the same count and under the same terms, next, `Cc1ccc(-c2cc3[nH]cc(C(=O)N4CCC(N)CC4)c3cc2-c2ccc(C#N)cc2C)cc1`: 0.6 µM.
Regarding `Cc1ccc(-c2cc3[nH]cc(C(=O)N4CCNCC4)c3cc2-c2ccc(C#N)cc2)cc1`, the IC50 in series [2] came out at 12.3 µM; in series [3], 2.3 µM; in series [4] it was 9.8 µM; in series [5] it was 15.3 µM; in series [1] it was 0.061 µM; in series [6], 22.3 µM. In series [7], this compound displayed an IC50 at 72 h of 19.1 µM.
As for `Cc1ccc(-c2cc3c(cc2-c2ccc(C#N)cc2)c(C(=O)N2CCC(N)CC2)cn3C(C)C)cc1`, the IC50 in series [1] was found to be 0.015 µM.
Still for that read-out and setting: next, `Cc1ccc(-c2cc3[nH]cc(C(=O)NCCCN)c3cc2-c2ccc(C#N)cc2)cc1`: 0.15 µM; `Cc1ccc(Cn2cc(C(=O)N3CCC(N)CC3)c3cc(-c4ccc(C#N)cc4)c(-c4ccc(C)cc4)cc32)cc1`: 0.858 µM; `Cc1ccc(-c2cc3[nH]cc(C(=O)NCCN)c3cc2-c2ccc(C#N)cc2)cc1`: 0.18 µM.
In series [1], `Cc1ccc(-c2cc3[nH]cc(C(=O)NC4CCNC4)c3cc2-c2ccc(C#N)cc2)cc1` (stereo unspecified) yielded an IC50 of 0.369 µM.
As for `Cc1ccc(-c2cc3[nH]cc(C(=O)N4CCC(N)CC4)c3cc2-c2ccc(C#N)cc2)cc1C`, the IC50 worked out at 14.7 µM in series [2]; 4.3 µM in series [3]; 15.6 µM in series [4]; 13.7 µM in series [5]; 0.05 µM in series [1]; 18.6 µM in series [6]. The compound also came in with an IC50 at 72 h in series [7] of 20.8 µM.
Consider `Cc1ccc(-c2cc3[nH]cc(C(=O)N4CCC(N)CC4)c3cc2-c2ccc(C#N)c(F)c2)cc1`, for which the 50% inhibitory concentration (IC50) in series [2] is 14.7 µM; in series [3] it was 2.7 µM; in series [4], 12.1 µM; in series [5], 13.4 µM; in series [1], 0.087 µM; in series [6] it was 17.7 µM. The IC50 at 72 h in series [7] stood at 13.3 µM.
`Cc1ccc(-c2cc3[nH]cc(C(=O)NC4CCNC4)c3cc2-c2ccc(C(N)=O)cc2)cc1` (stereo unspecified) gave an IC50 in series [1] of 24 µM.
On the same count and under the same terms, then `Cc1ccc(-c2cc3c(cc2-c2ccc(C#N)cc2)c(C(=O)N2CCC(N)CC2)cn3C2CC2)cc1`, with 0.018 µM; and `N#Cc1ccc(-c2cc3c(C(=O)N4CCC(N)CC4)c[nH]c3cc2-c2ccoc2)cc1`, with 0.969 µM.
For `Cc1ccc(-c2cc3[nH]cc(C(=O)N4CCC(N)CC4)c3cc2-c2ccc(C#N)cc2)c(C)c1`, in series [1], the half-inhibitory concentration (IC50) stood at 0.118 µM.
Same read-out and setting: then `Cc1ccc(-c2cc3c(cc2-c2ccc(C#N)cc2)c(C(=O)N2CCC(N)CC2)cn3S(=O)(=O)c2ccc(C#N)cc2)cc1`, with 0.11 µM; and `COc1ccc(-c2cc3[nH]cc(C(=O)N4CCC(N)CC4)c3cc2-c2ccc(C#N)cc2)c(F)c1`, with 0.208 µM.
Still for that read-out and setting: then `Cc1ccc(-c2cc3[nH]cc(C(=O)N4CCC(N)CC4)c3cc2-c2ccc(S(N)(=O)=O)cc2)cc1`, with 23 µM; and `Cc1ccc(-c2cc3[nH]cc(C(=O)N4CCC(N)CC4)c3cc2-c2ccc(C#N)nc2)cc1`, with 0.114 µM.
The same measure, in the same setting: next, `CCn1cc(C(=O)N2CCC(N)CC2)c2cc(-c3ccc(C#N)cc3)c(-c3ccc(C)cc3)cc21`: 0.028 µM.
As for `CCc1ccc(-c2cc3[nH]cc(C(=O)N4CCC(N)CC4)c3cc2-c2ccc(C#N)cc2)cc1`, the IC50 in series [2] came to 14.7 µM; in series [3], 17.3 µM; in series [4], 12.9 µM; in series [5], 14.7 µM; in series [1] it was 0.123 µM; in series [6], 26.9 µM. The same compound showed an IC50 at 72 h in series [7] of 29.6 µM.
In the case of `CC(=O)Nc1ccc(S(=O)(=O)n2cc(C(=O)N3CCC(N)CC3)c3cc(-c4ccc(C#N)cc4)c(-c4ccc(C)cc4)cc32)cc1`, half-maximal inhibition in series [1] (IC50) was put at 0.165 µM.
Still for that read-out and setting: next, `Cc1ccc(-c2cc3c(cc2-c2ccc(C#N)cc2)c(C(=O)N2CCC(N)CC2)cn3Cc2cccc(Br)c2)cc1`: 0.554 µM.
The same measure, in the same setting: next, `Cc1ccc(-c2cc3c(cc2-c2ccc(C#N)cc2)c(C(=O)N2CCC(N)CC2)cn3Cc2ccc(Br)cc2)cc1`: 1 µM; `Cc1ccc(-c2cc3[nH]cc(C(=O)NC4CCNCC4)c3cc2-c2ccc(C#N)cc2)cc1`: 0.335 µM.
On the same count and under the same terms, then `Cc1ccc(CS(=O)(=O)n2cc(C(=O)N3CCC(N)CC3)c3cc(-c4ccc(C#N)cc4)c(-c4ccc(C)cc4)cc32)cc1`, with 1.74 µM; and `Cc1ccc(-c2cc3[nH]cc(C(=O)N4CCC(N)CC4)c3cc2-c2ccc(O)cc2)cc1`, with 5 µM.
Compound `Cc1ccc(-c2cc3[nH]cc(C(=O)N4CCC(N)CC4)c3cc2-c2ccc(C(N)=O)cc2)cc1` had a half-inhibitory concentration (IC50) in series [1] of 22 µM.
